Data from publication PMC9518264, “Design and synthesis of novel quinazolinone-based derivatives as EGFR inhibitors with antitumor activity” (Journal of Enzyme Inhibition and Medicinal Chemistry, 2022).

How the values were obtained:
HT29 = test: cells; assay type: cell-based; conditions: Homo sapiens, HT-29, read-out: growth inhibition % (GI%)
SF-539 = test: cells; assay type: cell-based; conditions: Homo sapiens, SF-539, read-out: growth inhibition % (GI%)
SNB-19 = test: cells; assay type: cell-based; conditions: Homo sapiens, SNB-19, read-out: growth inhibition % (GI%)
HOP-92 = test: cells; assay type: cell-based; conditions: Homo sapiens, HOP-92, read-out: growth inhibition % (GI%)
BT-549 = test: cells; assay type: cell-based; conditions: Homo sapiens, BT-549, read-out: growth inhibition % (GI%)
COLO-205 = test: cells; assay type: cell-based; conditions: Homo sapiens, COLO 205, read-out: growth inhibition % (GI%)
MDA-MB-468 = test: NCI 60 cell line antiproliferative screening (SRB), Breast cancer; conditions: Homo sapiens, MDA-MB-468, read-out: growth inhibition % (GI%)
NCI-H322M = test: cells; assay type: cell-based; conditions: Homo sapiens, read-out: growth inhibition % (GI%)
DU-145 = test: cells; assay type: cell-based; conditions: Homo sapiens, DU-145, read-out: growth inhibition % (GI%)
MALME-3M = test: cells; assay type: cell-based; conditions: Homo sapiens, Malme-3M, read-out: growth inhibition % (GI%)
786-0 = test: cells; assay type: cell-based; conditions: Homo sapiens, 786-0, read-out: growth inhibition % (GI%)
UACC-62 = test: cells; assay type: cell-based; conditions: Homo sapiens, UACC-62, read-out: growth inhibition % (GI%)
MCF7 = test: cells; assay type: cell-based; conditions: Homo sapiens, MCF7, read-out: growth inhibition % (GI%)
SW-620 = test: cells; assay type: cell-based; conditions: Homo sapiens, SW-620, read-out: growth inhibition % (GI%)
EKVX = test: cells; assay type: cell-based; conditions: Homo sapiens, read-out: growth inhibition % (GI%)
SK-MEL-2 = test: cells; assay type: cell-based; conditions: Homo sapiens, SK-MEL-2, read-out: growth inhibition % (GI%)
K-562 = test: cells; assay type: cell-based; conditions: Homo sapiens, K562, read-out: growth inhibition % (GI%)
ACHN = test: cells; assay type: cell-based; conditions: Homo sapiens, read-out: growth inhibition % (GI%)
OVCAR-8 = test: cells; assay type: cell-based; conditions: Homo sapiens, OVCAR-8, read-out: growth inhibition % (GI%)
HCT-116 = test: cells; assay type: cell-based; conditions: Homo sapiens, HCT-116, read-out: growth inhibition % (GI%)
T-47D = test: cells; assay type: cell-based; conditions: Homo sapiens, T47D, read-out: growth inhibition % (GI%)
SR = test: cells; assay type: cell-based; conditions: Homo sapiens, read-out: growth inhibition % (GI%)
U251 = test: cells; assay type: cell-based; conditions: Homo sapiens, U-251, read-out: growth inhibition % (GI%)
SK-MEL-28 = test: cells; assay type: cell-based; conditions: Homo sapiens, SK-MEL-28, read-out: growth inhibition % (GI%)
SK-MEL-5 = test: cells; assay type: cell-based; conditions: Homo sapiens, SK-MEL-5, read-out: growth inhibition % (GI%)
HOP-62 = test: cells; assay type: cell-based; conditions: Homo sapiens, HOP-62, read-out: growth inhibition % (GI%)
MOLT-4 = test: cells; assay type: cell-based; conditions: Homo sapiens, MOLT-4, read-out: growth inhibition % (GI%)
MDA-MB-435 = test: cells; assay type: cell-based; conditions: Homo sapiens, MDA-MB-435, read-out: growth inhibition % (GI%)
SF-268 = test: cells; assay type: cell-based; conditions: Homo sapiens, SF-268, read-out: growth inhibition % (GI%)
IGROV1 = test: cells; assay type: cell-based; conditions: Homo sapiens, IGROV-1, read-out: growth inhibition % (GI%)
NCI-H460 = test: cells; assay type: cell-based; conditions: Homo sapiens, NCI-H460, read-out: growth inhibition % (GI%)
PC-3 = test: cells; assay type: cell-based; conditions: Homo sapiens, PC-3, read-out: growth inhibition % (GI%)
SN12C = test: cells; assay type: cell-based; conditions: Homo sapiens, read-out: growth inhibition % (GI%)
UO-31 = test: cells; assay type: cell-based; conditions: Homo sapiens, UO-31, read-out: growth inhibition % (GI%)
MDA-MB-231/ATCC = test: NCI 60 cell line antiproliferative screening (SRB), Breast cancer; assay type: cell-based; conditions: Homo sapiens, MDA-MB-231, read-out: growth inhibition % (GI%)
NCI/ADR-RES = test: cells; assay type: cell-based; conditions: Homo sapiens, read-out: growth inhibition % (GI%)
SF-295 = test: cells; assay type: cell-based; conditions: Homo sapiens, SF-295, read-out: growth inhibition % (GI%)
SK-OV-3 = test: cells; assay type: cell-based; conditions: Homo sapiens, SK-OV-3, read-out: growth inhibition % (GI%)
A498 = test: cells; assay type: cell-based; conditions: Homo sapiens, A498, read-out: growth inhibition % (GI%)
LOX IMIV = test: cells; assay type: cell-based; conditions: Homo sapiens, 60 cell, read-out: growth inhibition % (GI%)
RPMI-8226 = test: cells; assay type: cell-based; conditions: Homo sapiens, RPMI-8226, read-out: growth inhibition % (GI%)
HS 578T = test: cells; assay type: cell-based; conditions: Homo sapiens, Hs-578T, read-out: growth inhibition % (GI%)
[1] = tested on: panel of 60 tumour cell lines; test: NCI 60 cell line antiproliferative screening (SRB), whole panel or subpanels (means, ranges, words); assay type: cell-based, human; conditions: 10 μM
OVCAR-5 = test: cells; assay type: cell-based; conditions: Homo sapiens, OVCAR-5, read-out: growth inhibition % (GI%)
KM12 = test: cells; assay type: cell-based; conditions: Homo sapiens, KM12, read-out: growth inhibition % (GI%)
CCRF-CEM = test: cells; assay type: cell-based; conditions: Homo sapiens, read-out: growth inhibition % (GI%)
A549/ATCC = test: cells; assay type: cell-based; conditions: Homo sapiens, A549, read-out: growth inhibition % (GI%)

COc1ccc(Oc2ccc(C=NNC(=O)CSc3nc4ccccc4c(=O)n3-c3ccc(Cl)cc3)cc2)cc1 [6f, 2-((3–(4-chlorophenyl)-4-oxo-3,4-dihydroquinazolin-2-yl)thio)-N'-(4–(4-methoxyphenoxy)benzylidene)acetohydrazide]
inhibition at 10 µM (HT29): 83.9%
inhibition at 10 µM (SF-539): 67.8%
inhibition at 10 µM (SNB-19): 38.5%
inhibition at 10 µM (HOP-92): 22.7%
inhibition at 10 µM (BT-549): < 15%
inhibition at 10 µM (COLO-205): 27.2%
inhibition at 10 µM (MDA-MB-468): 33.2%
inhibition at 10 µM (NCI-H322M): 15.3%
inhibition at 10 µM (DU-145): 50.8%
inhibition at 10 µM (MALME-3M): 36.1%
inhibition at 10 µM (786-0): 74.8%
inhibition at 10 µM (UACC-62): 38.1%
inhibition at 10 µM (MCF7): 50.7%
inhibition at 10 µM (SW-620): 55.6%
inhibition at 10 µM (EKVX): 30.6%
inhibition at 10 µM (SK-MEL-2): < 15%
inhibition at 10 µM (K-562): 41.6%
inhibition at 10 µM (ACHN): 92.2%
inhibition at 10 µM (OVCAR-8): < 15%
inhibition at 10 µM (HCT-116): 86.7%
inhibition at 10 µM (T-47D): 62.1%
inhibition at 10 µM (SR): 27.2%
inhibition at 10 µM (U251): 63.5%
inhibition at 10 µM (SK-MEL-28): < 15%
inhibition at 10 µM (SK-MEL-5): 22%
inhibition at 10 µM (HOP-62): 26.7%
inhibition at 10 µM (MOLT-4): 38.3%
inhibition at 10 µM (MDA-MB-435): < 15%
inhibition at 10 µM (SF-268): 42.1%
inhibition at 10 µM (IGROV1): 51.4%
inhibition at 10 µM (NCI-H460): 88.8%
inhibition at 10 µM (PC-3): 36.3%
inhibition at 10 µM (SN12C): 47.3%
inhibition at 10 µM (UO-31): 52.3%
inhibition at 10 µM (MDA-MB-231/ATCC): 53.3%
inhibition at 10 µM (NCI/ADR-RES): 48.9%
inhibition at 10 µM (SF-295): 32.3%
inhibition at 10 µM (SK-OV-3): 33.7%
inhibition at 10 µM (A498): 27.1%
inhibition at 10 µM (LOX IMIV): 85.3%
inhibition at 10 µM (RPMI-8226): 14.9%
inhibition at 10 µM (HS 578T): > 100%
GI% range over a subset of cell lines ([1]; subset of cell lines whose number is stated in the sentence): 67.83 to 30.59%
inhibition at 10 µM ([1]; Homo sapiens, 60 cell, mean over the cell line panel, read-out: Mean growth inhibition % (mean GI%)): 42.5%
inhibition at 10 µM (OVCAR-5): 18.8%
inhibition at 10 µM (KM12): 22.8%
inhibition at 10 µM (CCRF-CEM): 36.5%
inhibition at 10 µM (A549/ATCC): 53%
